Source: article PMC6842543, “Antiparasitic effect of synthetic aromathecins on Leishmania infantum” (BMC Veterinary Research, 2019)
Entries after “also recorded” stand apart in the source; their conditions may differ. Where two headings read alike, the source gives them in different places.

Assays:
[1] = tested on: L. infantum promastigotes; assay: In vitro iRFP L. infantum promastigotes viability assay (infrared fluorescence); type: cell-based, Leishmania infantum; conditions: Leishmania infantum; iRFP-L. infantum promastigotes, 72 h, 26 °C, fluorescence at 708 nm; average of three experiments by duplicate; read-out: EC50 L. infantum promastigotes
Protocol: (§1) Two series of aromathecins (Table 1) have been tested against both stages of L. infantum, free-living promastigotes and intracellular amastigotes harbored in mouse splenic cells. Experiments were carried out using a genetically modified L. infantum strain that constitutively produces the iRFP protein. This makes it possible to evaluate the viability of parasites measuring the fluorescence emitted at 708 nm.
The antiparasitic activity of the compounds was assessed on the genetically modified iRFP L. infantum strain, which constitutively produces the infrared fluorescent protein (iRFP) when cells are viable. iRFP L. infantum was grown at 26 °C in M-199 medium (Gibco) supplemented with 25 mM HEPES pH 7.2, 0.1 mM adenine, 0.0005% (w/v) hemin, 2 μg/mL biopterin, 0.0001% (w/v) biotin, 10% (v/v) heat-inactivated fetal bovine serum (FBS) and an antibiotic cocktail comprising 50 U/mL penicillin and 50 μg/mL streptomycin.
(§2) The viability of cultured parasites in the presence of different concentrations of aromathecins was determined by measuring the reduction of infrared fluorescence emitted by free-living promastigotes/amastigotes with respect to negative controls of each form of the parasite treated with DMSO (up to 0.1% final concentration) as a vehicle. […] After 72 h incubation at 26 °C, the infrared fluorescence emitted at 708 nm by viable promastigotes/amastigotes was measured in an Odyssey (Li-Cor) infrared imaging system. Similarly, the cytotoxic effect (CC50) of aromathecins on uninfected splenic explants from BALB/c mice (cells that naturally harbor the amastigote stage) was measured by the Alamar Blue (Invitrogen) assay. The selectivity index (SI) was determined as the relationship between the CC50 value and the EC50 value for amastigotes. CC50 and EC50 were calculated by nonlinear analysis using the Sigma-Plot 10.0 statistical package. The aromathecins were dissolved in DMSO and stored at − 20 °C before their use as fresh aliquots.

L. infantum amastigotes = assay: Ex vivo murine splenic explant culture with intramacrophagic iRFP L. infantum amastigotes; type: cell-based, Leishmania infantum; conditions: for SI: Selectivity Index = CC50/EC50 (amastigotes): CC50 murine splenocytes / EC50 amastigotes; for EC50: Leishmania infantum, splenic-infecting amastigotes, ex vivo explants from infected BALB/c mice, 72 h, read-out: EC50 L. infantum amastigotes
Protocol: as §1
Primary splenocyte cultures containing intramacrophagic amastigotes were obtained from dissected spleens of female BALB/c mice infected intraperitoneally with 1.5 × 10^9 metacyclic iRFP L. infantum promastigotes, 5 weeks before their sacrifice. Mice were obtained commercially (Janvier-Labs). Animals were housed in specific-pathogen free facilities and they were euthanized by cervical dislocation without anesthesia. These protocols were approved by the Animal Care Committee of University of Leon (project license SAF2017–83575-R), which complies with European Union Legislation (2010/63/UE) and Spanish Act (RD 53/2013).
(§3) The spleens were washed with cold phosphate-buffered saline (PBS), cut in small pieces and incubated for 20 min with 5 mL of 2 mg/mL collagenase D (Sigma) prepared in buffer (10 mM HEPES, pH 7.4, 150 mM NaCl, 5 mM KCl, 1 mM MgCl2 and 1.8 mM CaCl2). After that, the cell suspension obtained was passed through a 100 μm cell strainer, harvested by centrifugation (500×g for 7 min at 4 °C), washed twice with PBS, and cultured at 37 °C under 5% CO2 atmosphere in RPMI medium (Gibco) supplemented with 10 mM HEPES, 1 mM sodium pyruvate, 1xRPMI 1640 vitamin mix, 10% (v/v) FBS, 50 U/mL penicillin and 50 μg/mL streptomycin (Calvo-Álvarez et al., 2015).
as §2

[2] = Cytotoxicity on uninfected splenic explants (Alamar Blue); type: cell-based, BALB/c mice; conditions: mouse, uninfected splenic explants from BALB/c mice, Alamar Blue
Protocol: as §3, §2

recombinant LTopIB = assay: TopIB relaxation activity assay (supercoiled pBluescript-SK plasmid, agarose gel with ethidium bromide); type: biochemical, Leishmania; conditions: for Inhibition of LTopIB relaxation activity (in words): 0.01, 0.1, 1, 10 and 100 μM, 26 °C, 4 min; for Concentration at which partial inhibition of LTopIB started: not concentration dependent; for Total inhibition of LTopIB: only at high concentration (100 μM)
Protocol: In addition to the antileishmanial effect of these compounds, their activity as LTopIB inhibitors was analyzed in vitro (Fig. 2). Recombinant LTopIB was produced in a TopIB-defective yeast platform, and purified by standard chromatographic protocols. The effect of aromathecins (comp. 1 to 10) on LTopIB was addressed by measuring the relaxation of negatively supercoiled pBluescript-SK DNA plasmid in the presence of different concentrations of these molecules. In order to separate the nicked DNA generated by the cleavage-complex stabilization from the relaxed topoisomers, gels were run in the presence of ethidium bromide.
Fig. 2 Inhibition of LTopIB relaxation activity of negatively supercoiled pBluescript SK (−) plasmid (pSK) mediated by different aromathecins concentrations (0.01, 0.1, 1, 10 and 100 μM). The control reaction contained 1% DMSO. DNA was separated by gel electrophoresis in 1% agarose containing 0.1 μg/mL ethidium bromide. Gels were visualized with UV illumination. Key: R = relaxed DNA; Sc = supercoiled DNA; N = nicked DNA
Expression and purification of LTopIB were carried out according to a previously standardized protocol. LTopIB was purified from yeast strain EKY3 deficient in TopIB activity [MATα, ura3–52, his3Δ200, leu2Δ1, trp1Δ63, top1Δ:TRP1], transfected with the pESC-URA plasmid containing both subunits of LTopIB. Cells were grown in yeast synthetic drop-out medium without uracil (Sigma) supplemented with 2% raffinose (w/v) to OD600: 0.8–1 and induced for 10 h with 2% galactose (w/v). Yeast were harvested, washed with cold TEEG buffer (50 mM Tris-HCl pH 7.4, 1 mM EDTA, 1 mM EGTA, 10% glycerol) and resuspended to their lysis in 15 mL of 1 x TEEG buffer supplemented with 0.2 M KCl and a protease inhibitors cocktail (Thermo Scientific). Protein extract obtained was loaded on a 5 mL P-11 phosphocellulose column (Whatman International Ltd. England). LTopIB protein was eluted at 4 °C with a discontinuous gradient of KCl (0.2, 0.4, 0.6 M) in TEEG buffer.
The effect of aromathecins on recombinant LTopIB was determined by measuring the relaxation of negatively supercoiled pBluescript-SK DNA plasmid (pSK). Thus, 20 μL of reaction mixture (0.5 μg pSK; 10 mM Tris-HCl pH 7.5; 5 mM MgCl2; 0.1 mM EDTA; 15 μg/mL bovine serum albumin) along with 0.01, 0.1, 1, 10 and 100 μM of the different aromathecins were incubated at 26 °C during 4 min. The control reaction performed without aromathecins contained 1% DMSO. Reactions were stopped by adding 1% SDS (final concentration), digested with 1 mg/mL proteinase K at 37 °C during 1 h and extracted with phenol/chloroform. DNA was separated by gel electrophoresis in 1% agarose containing 0.1 μg/mL ethidium bromide in 0.1 M Tris borate EDTA buffer (pH 8.0) at 4 V/cm for 16 h. Gels were visualized with UV illumination.

[3] = tested on: CPT-20 (CPT-resistant L. infantum promastigotes); assay: Susceptibility of CPT-resistant strain CPT-20 promastigotes; type: cell-based, Leishmania infantum; conditions: read-out: EC50 in CPT-20 strain
Protocol: (§4) In order to evaluate if aromathecins would share the transporter involved in CPT resistance, one of the major problems related to the loss of effectiveness of CPT derivatives, a CPT-resistant strain was generated. The CPT-resistant strain used was generated by the exposure of L. infantum promastigotes to increasing concentrations of CPT, from 0.1 to 20 μM (CPT-20, from now on). […] Therefore, it is very likely that the resistance mechanism of CPT-20 is related to the overexpression of the ABCG6 transporter previously described as the drug-efflux pump involved in the CPT resistance mechanism. The CPT-20 strain was susceptible to the aromathecins assayed in this work (2, 5 and 10 were not assayed due to their poor effect against iRFP L. infantum promastigotes), showing very similar EC50 values to those obtained with iRFP L. infantum.
The CPT resistant strain used in this work was generated exposing L. infantum promastigotes to increased concentrations of CPT, from 0.1 to the solubility limit of the compound, 20 μM in the case of CPT. Parasites were grown at 26 °C in M199 medium supplemented as described previously, each culture being inoculated at an initial density of 10^6 cells/mL. The promastigotes cultured in liquid medium in the presence of 20 μM CPT, were plated on semisolid M199 medium containing 20 μM CTP in order to select a single colony.

L. infantum WT strain = assay: Susceptibility of WT strain promastigotes; type: cell-based, Leishmania infantum
Protocol: as §4

[4] = uninfected splenic explants (murine splenocytes)
[5] = read-out: CC50 Murine Splenocytes

SMILES	EC50 [1] [µM]	SI: Selectivity Index = CC50/EC50 (amastigotes) (L. infantum amastigotes)	EC50 (L. infantum amastigotes) [µM]	CC50 at 72 h [2, 4] [µM]	Inhibition of LTopIB relaxation activity (in words) (recombinant LTopIB)	Concentration at which partial inhibition of LTopIB started (recombinant LTopIB) [µM]	Total inhibition of LTopIB (recombinant LTopIB)	CC50 at 72 h [2, 5] [µM]	Nicked DNA from cleavage-complex stabilization (recombinant LTopIB; gel run in the presence of ethidium bromide)	EC50 ([3]; CPT-resistant L. infantum promastigotes selected up to 20 μM CPT) [µM]	EC50 (L. infantum WT strain) [µM]	EC50 ([3]; Leishmania infantum) [µM]	EC50 (L. infantum WT strain; Leishmania infantum) [µM]
CN(C)CCCc1c2c(nc3ccccc13)-c1cc3ccccc3c(=O)n1C2 [Compound 1]	6.27 ± 0.7	9.8	0.45 ± 0.14	4.41 ± 1.07	partial inhibition; also recorded: inhibit the enzyme at very low concentrations	0.01							
NCCNCc1c2c(nc3ccccc13)-c1cc3ccccc3c(=O)n1C2 [Compound 2]	> 20		0.81 ± 0.05	2.17 ± 0.27									
NCCCCNCc1c2c(nc3ccccc13)-c1cc3ccccc3c(=O)n1C2 [Compound 3]	3.71 ± 0.45	2.5	1.01 ± 0.13	2.53 ± 0.14	partial inhibition	0.01	total inhibition						
O=c1c2ccccc2cc2n1Cc1c-2nc2ccccc2c1CCCNCCO [Compound 4]	4.99 ± 0.31	5.0	0.99 ± 1.17	4.96 ± 0.52	partial inhibition	0.01							
O=c1c2ccccc2cc2n1Cc1c-2nc2ccccc2c1CCCn1ccnc1 [Compound 5]	> 20	5.2	0.44 ± 0.03		partial inhibition	0.01		2.31 ± 0.72					
O=c1c2ccccc2cc2n1Cc1c-2nc2cccc(Cl)c2c1CNCCCn1ccnc1 [Compound 6]	3.33 ± 0.17	3.7	0.19 ± 0.03	0.7 ± 0.12	did not have any inhibitory effect; also recorded: do not have LTopIB inhibitory activity								
NCCCc1c2c(nc3cc4c(cc13)OCCO4)-c1cc3ccccc3c(=O)n1C2 [Compound 7]	13.3 ± 2.74		1.11 ± 0.08		partial inhibition	0.01	total inhibition	0.31 ± 0.04					
CN(C)Cc1c2c(nc3cc4c(cc13)OCCO4)-c1cc3ccccc3c(=O)n1C2 [Compound 8]	5.09 ± 0.82	10.6	0.35 ± 0.03	3.72 ± 0.76					weak band of nicked DNA; also recorded: nick DNA from cleavage-complex stabilization				
CN(C)CCCc1c2c(nc3cc4c(cc13)OCCO4)-c1cc3ccccc3c(=O)n1C2 [Compound 9]	3.03 ± 0.45	8.0	0.37 ± 1.06	3.04 ± 1.06	only happed at a high concentration		total inhibition						
O=c1c2ccccc2cc2n1Cc1c-2nc2cc3c(cc2c1Cn1ccnc1)OCCO3 [Compound 10]	> 20	9.3	0.58 ± 0.05	5.56 ± 1.13	did not have any inhibitory effect; also recorded: do not have LTopIB inhibitory activity								
CCc1c2c(nc3ccc(O)cc13)-c1cc3c(c(=O)n1C2)COC(=O)[C@]3(O)CC [SN38]										40.98 ± 0.3	4.73 ± 0.14		
CC[C@@]1(O)C(=O)OCc2c1cc1n(c2=O)Cc2cc3c(CN(C)C)c(O)ccc3nc2-1 [topotecan]												> 100	9.54 ± 0.22
